The structures appear in SMILES notation.

What all share (assay type): cell-based
Assay [1] relates to reconstructed human pigmented epidermis (RHPE). Description: Depigmentation test: melanin quantification by imaging. The settings on record: daily application day 9 to day 17, in comparison with Control, read-out: melanin reduction. The method, then: The depigmenting potential of the ALRE was assessed on reconstructed human pigmented epidermis (RHPE). Said cells were specifically generated for screening depigmenting agents or skin lightening products prior to human in vivo testing, as disclosed in Hall et al., Reconstructed human pigmented skin/epidermis models achieve epidermal pigmentation through melanocore transfer, Pigment Cell Melanoma Res., 2022, 35, 425-435. On day 9, the medium was replaced with a daily renewal, incorporating test compounds: the ALRE at concentrations of 0.2, 0.1, and 0.05 mg/ml, comparing its effect with 10 µM Retinol. In this assessment, […] DMSO was used as a negative control and 250 µM Kojic acid as a positive control. Images for melanin evaluation were captured on day 17 using Leica EZ4 W stereo microscope (Leica Microsystems, Wetzlar, Germany) and quantified as follows: all imaging processing steps were performed with the imaging software Fiji/lmageJ v 1.52n (Schindelin et al., Fiji - an Open Source platform for biological image analysis, Nat. Methods, 2012, 9(7), doi:10-1038). […] Statistical differences were determined by two-way ANOVA using R version 4.3.2 (R: A Language and Environment for Statistical Computing, n.d.). […]

The target of assay [2] is T1, human TRPV1 channel (Homo sapiens, UniProt Q8NER1).
T1 construct: expressed in transfected cells
Kind of assay: TRPV1 irritation test: intracellular calcium influx (Fluo4-NW) in TRPV1-overexpressing HEK cells. Particulars: 1-hour incubation, normalized to 1 µM capsaicin (100%) and assay buffer (0%). From the text: In this TRPV1 test, compositions comprising different amounts of the A. lancea root extract (ALRE) were compared with retinol and tested on Human Embryonic Kidney (HEK) cells stably expressing this TRPV1 channel.
Cytosolic calcium influx was monitored using Fluo4-NW (Thermo Fisher Scientific) mix dye following manufacturer's instructions.
Activation of the TRPV1 receptor causes a Ca^+2 influx, and a direct relationship between fluorescence and TRPV1 receptor response can be established.
Fluorescence signal (AFU) was measured after excitation at 485 nm and emission at 520 nm using ClarioStar Plus microplate reader from BMG LABTECH.
The effect of tested compounds on intracellular Ca^+2 influx was studied 48 hours after cell seeding. The medium of TRPV1-overexpressing HEK cells was replaced by 90 µL/well of Fluo4-NW dye solution in assay buffer containing probenecid. […]
After 1 hour incubation at 37 °C, the plate was kept for 15 minutes at room temperature inside the fluorescence plate reader. After that, the program started with a stop in cycle 3 to add test compounds and capsazepine, 0.2% Triton X-100 (maximal signal control for dye loading) and assay buffer (minimal signal) and the fluorescence signal was recorded for 7 additional cycles. […] The signal was recorded until cycle 20. […]
In general terms: Calcium assays in cells follow changes in intracellular calcium, usually with a dye or a luminescent sensor.

Assay [3] has as its system Human Dermal Fibroblasts. The settings on record: 6 h, 10 µM retinol or 0.05 mg/ml ALRE. The method, then: To better understand the cellular pathways and processes that were modulated by the ALRE in human dermal fibroblasts, and its relevance with respect to retinol, a comprehensive and comparative assessment of gene expression by transcriptome analysis was conducted.
Three biological triplicates of Human Dermal Fibroblasts (HDF; ZenBio Inc., Research Triangle Park, NC, USA) were stimulated for 6 h with either 10 µM retinol or 0.05 mg/ml ALRE. RNA was extracted with the TRIzol® Plus RNA Purification Kit, including DNase I treatment step, according to manufacturer's instructions. RNA quality and quantity were inspected by spectrophotometric measurement using a NanoDrop™ One spectrophotometer (Thermo Fisher Scientific, Pittsburgh, PA, USA).
Messenger RNA was purified from total RNA using poly-T oligo-attached magnetic beads. After fragmentation, the first strand cDNA was synthesized using random hexamer primers, followed by the second strand cDNA synthesis using either dUTP for directional library or dTTP for non-directional library. For the non-directional library, it was ready after end repair, A-tailing, adapter ligation, size selection, amplification, and purification. For the directional library, it was ready after end repair, A-tailing, adapter ligation, size selection, USER enzyme digestion, amplification, and purification . The library was checked with Qubit and real-time PCR for quantification and bioanalyzer for size distribution detection. Quantified libraries were pooled and sequenced (Paired-end 150 bp) on Illumina platforms, according to effective library concentration and data amount.
Obtained data were studied by bioinformatic analysis as disclosed, for example, in Liao et al, featureCounts: an efficient general purpose program for assigning sequence reads to genomic features, Bioinformatics, 2014 ,30(7), 923-30, Mortazavi et al., Mapping and quantifying mammalian transcriptomes by RNA-Seq, Nature Methods, 2008, 5(7), 621-628, and Robinson et al., edgeR: a Bioconductor package for differential expression analysis of digital gene expression data, Bioinformatics, 2010, 26(1), 139-140.
Genes involved in the following categories were studied: • 2.1.- Retinoid binding, metabolizing genes and lipid transport • 2.2.- Extracellular matrix • 2.3.- Inflammatory pathway

Setting [4] is: vs non-treated human fibroblast.

T1 sequence (Q8NER1 whole entry): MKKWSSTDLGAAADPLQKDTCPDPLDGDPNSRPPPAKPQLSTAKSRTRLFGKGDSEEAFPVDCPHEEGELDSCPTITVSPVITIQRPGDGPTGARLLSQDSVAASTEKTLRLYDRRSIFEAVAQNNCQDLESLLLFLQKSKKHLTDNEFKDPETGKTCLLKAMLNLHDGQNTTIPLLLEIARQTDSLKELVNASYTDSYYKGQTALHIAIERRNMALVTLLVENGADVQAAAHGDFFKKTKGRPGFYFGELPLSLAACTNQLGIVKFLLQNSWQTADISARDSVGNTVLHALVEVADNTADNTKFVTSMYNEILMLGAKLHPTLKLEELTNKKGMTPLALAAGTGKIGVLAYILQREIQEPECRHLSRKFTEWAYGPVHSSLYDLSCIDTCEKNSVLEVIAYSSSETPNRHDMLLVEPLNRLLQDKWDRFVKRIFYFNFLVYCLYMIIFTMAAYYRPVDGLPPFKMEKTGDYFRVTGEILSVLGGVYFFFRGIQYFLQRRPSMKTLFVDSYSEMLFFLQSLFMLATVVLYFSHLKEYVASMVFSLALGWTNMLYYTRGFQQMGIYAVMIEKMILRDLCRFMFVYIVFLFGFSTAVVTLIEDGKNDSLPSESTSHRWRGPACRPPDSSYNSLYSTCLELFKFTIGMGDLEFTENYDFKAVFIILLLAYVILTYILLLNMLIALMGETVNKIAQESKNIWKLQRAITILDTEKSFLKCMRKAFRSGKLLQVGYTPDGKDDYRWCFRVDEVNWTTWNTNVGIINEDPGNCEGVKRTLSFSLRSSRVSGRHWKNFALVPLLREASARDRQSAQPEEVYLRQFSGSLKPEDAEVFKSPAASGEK

Regarding `O=c1cc(CO)occ1O` [kojic acid], the inhibition at 250 µM in assay [1] (250 µM kojic acid) came to 58%.
As to `CC1=C(/C=C/C(C)=C/C=C/C(C)=C/CO)C(C)(C)CCC1` [retinol], the intracellular calcium increase result in assay [2] (retinol 50 µM) is given as “significant rise”. Further, the intracellular calcium increase result in assay [2] (retinol 100 µM) is given as “significant rise”. In addition, the inhibition at 10 µM in assay [1] (10 µM retinol) worked out at 76%. Also, in assay [3] (setting [4]), the MMP1 gene expression result was “elevation”, the MMP12 gene expression entry is reported as “elevation”, the TIMP1 gene expression entry was “significantly upregulated” and the TIMP3 gene expression result is “significantly upregulated”. Also, the “gene expression associated with crucial ECM proteins” value in assay [3] (vs non-treated human fibroblast (100%)) is reported as “comparable modulation of gene expression”.

These data come from patent EP4656178A1, “COSMETIC USE OF ATRACTYLODES LANCEA ROOT EXTRACT” (Provital, S.A., priority 2024, dated 2025).
